Tests used:
[1] = target: T1, Human P2Y12 (Homo sapiens, UniProt Q9H244); test: Substitution test for the binding between human P2Y12 and 2-methylthio-ADP (2-MeS-ADP); details: compound 30 nM (final concentration); [33P]-2-MeS-ADP binding to P2Y12 protein-expressing C6-15 cell membrane fraction
T1 construct: expressed in transfected cells
Protocol: Test Method (2) Substitution Test for the binding between Human P2Y12 and 2-methylthio-ADP(2-MeS-ADP)
In a 10 cm petri dish, C6-15 cells were spread to be 1×10^6 of cells by using a DMEM culture medium and cultured for 1 day. After that, genes of plasmids such as 8 μg of pEF-BOS-dhfr-human P2Y12 and 0.8 μg of pEF-BOS-neo (Nucleic Acid Res., 18, 5322, 1990) were introduced to the cells using a transfection reagent (LipofectAMINE 2000; manufactured by GIBCO BRL Inc.).
After 24 hours since the above-mentioned gene introduction operation had been completed, the cells to which the genes were introduced were recovered and suspended in a DMEM culture medium containing 0.6 mg/ml of G418 (manufactured by GIBCO BRL Inc.). After that, the cells were serially diluted and spread on a 10 cm petri dish. Colonies appeared after 2 weeks later were individually collected and used in the following tests as P2Y12 protein-expressing C6-15 cells (WO 02/36631, Mol. Pharmacol., 60, 432, 2001).
The P2Y12 protein-expressing C6-15 cells were cultured and then the cells were recovered. The cells were washed with PBS, suspended in 20 mM Tris-HCl (pH 7.4) containing 5 mmol/l EDTA and Complete™ (manufactured by Boehringer Mannheim) which is a protease inhibitor cocktail set, and homogenized by Polytron. The cells were subjected to an ultracentrifugation and a precipitate is suspended in 50 mM Tris-HCl (pH 7.4) containing 1 mM of EDTA, 100 mM NaCl, and Complete™ to perform membrane fraction.
To 100 μl of the P2Y12 protein-expressing C6-15 cell membrane fraction (100 μg/ml) produced as mentioned above, 1.5 μl of a test compound solution and 50 μl of 0.75 nM [^33P]-2-MeS-ADP (2100 Ci/mmol, manufactured by PerkinElmer Inc.) were added. The mixture was incubated in 50 mM Tris-HCl (pH 7.4) containing 100 mM NaCl and 50 mM MgCl2 at room temperature for 1 hour, and then recovered by cell harvest on a glass filter. Microscintillators were added to the glass filter and the radioactive activity was measured by a liquid scintillation counter. In addition, simultaneously, the radioactivity in the case where only a solvent is added to the above-mentioned test and in the case where 1.5 μl of 250 μM ADP is added thereto were measured respectively as the total binding amount and the nonspecific binding amount. The total binding amount and the nonspecific binding amount were set respectively as the inhibition rate of 0% and the inhibition rate of 100% to calculate the inhibition rate (%) of the test compound.

[2] = tested on: human platelets (platelet rich plasma), ADP-induced aggregation; test: Human platelet aggregation inhibitory activity measurement test (ADP-induced, PRP); assay type: cell-based; details: compound 10 μM (final concentration); ADP-induced aggregation of human PRP; area under the platelet aggregation curve
Protocol: Test Method (1) Human Platelet Aggregation Inhibitory Activity Measurement Test
Using a syringe in which 1/10 vol of a 3.8% sodium citrate solution is contained, blood was collected from a healthy volunteer (adult). The blood was subjected to a centrifugation at 160×g for 10 minutes and a supernatant platelet rich plasma (PRP) was separated. The remaining blood of which the PRP has been collected was subjected to a centrifugation at 1,800×g for 10 minutes and a platelet poor plasma (PPP) was separated. The number of the platelets in the PRP was measured using an automatic blood cell counter (MEK-6258, Nihon Kohden Corporation). After that, the PPP was added to the PRP to adjust the number of the platelets to 3×10^8 /ml, thereby using the platelets for the following tests. As an ADP, which is a platelet aggregating agent, a product manufactured by MC Medical Inc. was used. The platelet aggregation was measured using a platelet aggregometer (MCM Hematracer 212; MC medical Inc.). That is, 80 μl of the PRP having the number of the platelets of 3×10^8 /ml and 10 μl of a test compound solution or solvent (10% DMSO or 10% DMSO-9% hydroxypropyl-β-cyclodextrin-4.5% d-mannitol) were incubated at 37° C. for 1 minute and then 10 μl of ADP (50 μM) was added to the mixture to cause platelet aggregation, thereby recording a variation in transmitted light for 5 minutes. An inhibition rate was calculated using an area under the platelet aggregation curve as an index. In addition, Ex represents a number of the compounds of Examples.

[3] = tested on: rat platelets (PRP), ADP-induced aggregation; test: Rat platelet aggregation inhibition test (ex vivo after oral administration); assay type: in vivo; details: male SD rat, 30 mg/kg orally, blood collected 2 hours after administration; ADP-induced aggregation of PRP
Protocol: Test Method (3) Rat Platelet Aggregation Inhibition Test and Measurement of Test Compound Concentration in Plasma
An aqueous sodium hydroxide solution and the same amount of a 1% aqueous methyl cellulose solution were added to the compound of the invention to prepare a 0.5% aqueous methyl cellulose solution or a suspension solution. This preparation solution was orally administered to a male SD rat (5 to 7 weeks old) which has been fasted over 12 hours using a sonde at a dose of 30 mg/kg. After 2 hours later since the administration of the compound, using a syringe in which 1/10 vol of a 3.8% sodium citrate solution is contained, a blood was collected. In the same manner as in Test Method (1), a PPP and a PRP having the number of the platelets as 3×10^8 /ml were prepared. 90 μl of the PRP having the number of the platelets of 3×10^8 /ml was incubated at 37° C. for 1 minute and then 10 μl of ADP (50 μM) was added thereto to cause platelet aggregation, thereby recording a variation in transmitted light for 5 minutes. An inhibition rate was calculated using an area under the platelet aggregation curve as an index.

T1 sequence (Q9H244 whole entry): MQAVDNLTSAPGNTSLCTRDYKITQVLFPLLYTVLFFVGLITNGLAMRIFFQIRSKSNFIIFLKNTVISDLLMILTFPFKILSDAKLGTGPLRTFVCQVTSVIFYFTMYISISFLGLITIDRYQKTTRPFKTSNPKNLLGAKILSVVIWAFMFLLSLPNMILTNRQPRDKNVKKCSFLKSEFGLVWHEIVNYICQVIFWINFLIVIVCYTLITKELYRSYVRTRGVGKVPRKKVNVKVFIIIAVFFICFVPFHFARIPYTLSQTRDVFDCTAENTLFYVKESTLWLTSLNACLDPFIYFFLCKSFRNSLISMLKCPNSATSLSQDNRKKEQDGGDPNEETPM

| Structure (SMILES) | inhibition at 0.03 µM [1] | inhibition at 10 µM [2] | % Inhibition [3] |
| --- | --- | --- | --- |
| O=C(O)COn1c(=O)c2cc(F)c(NC3CCCCC3)cc2n(C2CCCC2)c1=O [Example 24, {[7-(cyclohexylamino)-1-cyclopentyl-6-fluoro-2,4-dioxo-1,4-dihydroquinazolin-3(2H)-yl]oxy}acetic acid] | 60% | 89% |  |
| O=C(O)CNC(=O)Cn1c(=O)c2cc(F)c(NC3CCCCC3)cc2n(C2CCCC2)c1=O [Example 42] | 56% | 75% |  |
| O=C(O)/C=C/Cn1c(=O)c2cc(F)c(NC3CCCCC3)cc2n(C2CCCC2)c1=O [Example 65] |  | 86% | 56% |
| O=C(O)Cn1c(=O)c2cc(F)c(NCC3CC3)cc2n(C2CCCC2)c1=O [Example 69] |  | 50% |  |
| CC(C)n1c(=O)n(CCCC(=O)O)c(=O)c2cc(F)c(NC3CCCCC3)cc21 [Example 77] |  | 88% |  |
| CC(CCn1c(=O)c2cc(F)c(NC3CCCCC3)cc2n(C2CCCC2)c1=O)C(=O)O (centres unmarked) [Example 114] | 71% | 91% | 90% |
| O=C(O)CCCNn1c(=O)c2cc(F)c(NC3CCCCC3)cc2n(C2CCCC2)c1=O [Example 155] | 72% | 93% |  |
| O=C(O)COc1cccc(Cn2c(=O)c3cc(F)c(NC4CCCCC4)cc3n(C3CCCC3)c2=O)c1 [Example 157] | 67% |  |  |
